Entries after “also recorded” stand apart in the source; their conditions may differ.
Columns and labels:
RhlR = target: T1, RhlR (Pseudomonas aeruginosa, UniProt P54292); experiment: P. aeruginosa reporter assay, RhlR agonism (native ligand); format: cell-based
T1 construct: expressed in transfected cells; host or cells: E. coli JLD271
Procedure: P. aeruginosa reporter assays: Primary assays for RhlR activity in P. aeruginosa were performed as previously reported for LasR, [33] with the following modifications: OdDHL was added to the subculture to a final concentration of 100 nm immediately before it was dispensed into plates to induce expression of RhlR. For RhlR antagonism assays, synthetic ligand (100 mm) was screened against BHL at its EC50 (30 mm). For RhlR agonism assays, synthetic ligand (100 mm) was screened alongside and compared to BHL (at 900 mm) for the system. Dose-response reporter gene assays were performed according to these protocols by using various concentrations of compound.

P. aeruginosa (PAO1) [1] = experiment: P. aeruginosa growth curves; format: cell-based, Pseudomonas aeruginosa
Procedure: FIGS. 2A-2D are wild-type P. aeruginosa growth curves in the presence of test compounds in various media. Related to FIGS. 3, 6A and 6B, 7A and 7B, and 12. (FIG. 2A) Growth curves in complete MOPS/Glutamate. (FIG. 2B) Growth curves in complete MOPS/Glucose. […] (FIG. 2D) Growth curves in SCFM2. P. aeruginosa (PAO1) was grown in a manner identical to the pyocyanin assay (see Experimental Procedures). At each time point, growth was measured by either reading OD600 (for MOPS media) or by serially diluting culture aliquots, plating on LB agar, and counting CFUs after overnight incubation at 37° C. (for SCFM2). Compound concentrations are 100 microM for compounds 1, 2, and 3 and 25 microM for compound 4 in all experiments unless noted otherwise. Error bars represent the standard error of at least two biological replicates (n≥2). BHL=N-butyryl L-homoserine lactone (Cayman Chemicals).
B. Bacterial Strains and Growth Conditions. Protocols for construction of genetic knockout strains are described below in Example 2. All reagents for bacterial culture were purchased from Sigma-Aldrich unless indicated otherwise. Bacteria were routinely cultured in Luria-Bertani broth (LB) at 37° C. with shaking at 200 rpm. Freezer stocks of bacterial strains were maintained at −80° C. in 1:1 LB:glycerol. Bacterial growth was routinely assessed by measuring the culture cell density according to absorbance at 600 nm (OD600341). Cell growth in simulated cystic fibrosis sputum medium (SCFM2) was determined by serially diluting assay cultures, plating on LB agar, and counting the number of colony forming units (CFU) appearing after overnight incubation at 37° C.

P. aeruginosa (PAO1) [2] = experiment: Pyocyanin assay; format: cell-based, Pseudomonas aeruginosa; conditions: for pyocyanin production, single compound screens: MOPS Glutamate and Glucose media, complete or iron/phosphate depleted, 17 h, 100 μM (compounds 1, 2, 3), 25 μM (compound 4), relative to DMSO
Procedure: A. Pyocyanin Assay Protocol. The amount of pyocyanin in P. aeruginosa culture supernatants was measured following a reported protocol (O'Loughlin et al., 2013) with modifications. A 10 mL overnight culture of P. aeruginosa PAO1 was grown for 16 h. DMSO stock solutions of test compounds (20 mM) were prepared, and 10 μL or 5 μL aliquots were added to sterile 15 mL borosilicate glass test tubes. An inoculating culture was prepared by diluting the overnight culture 1:100 into freshly prepared assay medium (see above), and 2 mL aliquots of this subculture were added to each test tube (0.5% DMSO, final). The cultures were grown for 17 h, and the final cell density measured by reading OD600. Relative pyocyanin levels were measured by first pelleting 1.5 mL of well-mixed culture at 4,000 g for 10 min, transferring 200 μL of the resulting supernatant to a clear, plastic 96-well microtiter plate, and reading absorbance at 695 nm. Media background absorbance (measured from a “no bacteria” control) was subtracted, the resulting values growth normalized by dividing by the final OD600378, and the data plotted relative to a DMSO-treated positive control. B. Rhamnolipid Assay Protocol. Rhamnolipid was quantified following a reported protocol (Koch et al., 1991) with modifications. Assay cultures were prepared and grown in an identical manner to the pyocyanin assay above. Aliquots of the final culture supernatant (1 mL) were transferred to 1 dram glass vials and extracted twice with 1 mL diethyl ether. The pooled organic fractions were evaporated to dryness, and the resulting residue reconstituted in 200 μL de-ionized water. In a 1.7 mL plastic centrifuge tube, 50 μL of this extract was diluted into 450 μL of a solution of 0.19% (w/v) orcinol in 50% (v/v) concentrated H2SO4 (or 20 μL extract into 480 μL orcinol solution for cultures grown in MOPS Glucose medium). The tubes were vortexed thoroughly to mix and incubated in an 80° C. heating block for 30 min. After briefly cooling to room temperature, 200 μL of the resulting yellow to yellow-orange solution was transferred to a clear 96-well microtiter plate, and the absorbance at 421 nm measured. Media background absorbance (measured from a “no bacteria” control) was subtracted, the resulting values growth normalized by dividing by the final OD600, and the data plotted relative to a DMSO-treated positive control. C. Elastase B Assay Protocol. The amount of elastase B in P. aeruginosa culture supernatants was measured following a reported protocol (Geske et al., 2007) with modifications. Assay cultures were prepared and grown in an identical manner to the pyocyanin assay above. Aliquots of the final culture supernatant (50 μL) were added to the wells of a clear, plastic 96-well plate. To each well, 150 μL of 0.5% (w/v) elastin-congo red conjugate (Elastin Products Co.) in Tris buffer (10 mM Tris-HCl, 1 mM CaCl2, pH 7.2) was added. The plate was sealed with a polypropylene storage mat (Costar 3080) and incubated in a 37° C. shaking incubator (200 rpm) attached to a Labquake rotator for 12 h (for experiments in SCFM2) or 24 h (for experiments in MOPS medium). To quantify elastase B activity, the undigested elastin was pelleted by centrifugation of the assay plate at 1,500 g for 10 min, after which 100 μL of the supernatant was transferred to a new, clear 96-well plate, and the absorbance at 490 nm measured. Media background absorbance (measured from a “no bacteria” control) was subtracted, the resulting values growth normalized by dividing by the final OD600, and the data plotted relative to a DMSO-treated positive control.

P. aeruginosa (PAO1) [3] = experiment: Rhamnolipid assay; format: cell-based, Pseudomonas aeruginosa; conditions: MOPS Glutamate and Glucose media, complete or iron/phosphate depleted, 17 h, 100 μM (compounds 1, 2, 3), 25 μM (compound 4), relative to DMSO
Procedure: (§1) A. Pyocyanin Assay Protocol. The amount of pyocyanin in P. aeruginosa culture supernatants was measured following a reported protocol (O'Loughlin et al., 2013) with modifications. A 10 mL overnight culture of P. aeruginosa PAO1 was grown for 16 h. DMSO stock solutions of test compounds (20 mM) were prepared, and 10 μL or 5 μL aliquots were added to sterile 15 mL borosilicate glass test tubes. An inoculating culture was prepared by diluting the overnight culture 1:100 into freshly prepared assay medium (see above), and 2 mL aliquots of this subculture were added to each test tube (0.5% DMSO, final). The cultures were grown for 17 h, and the final cell density measured by reading OD600. Relative pyocyanin levels were measured by first pelleting 1.5 mL of well-mixed culture at 4,000 g for 10 min, transferring 200 μL of the resulting supernatant to a clear, plastic 96-well microtiter plate, and reading absorbance at 695 nm. Media background absorbance (measured from a “no bacteria” control) was subtracted, the resulting values growth normalized by dividing by the final OD600378, and the data plotted relative to a DMSO-treated positive control. B. Rhamnolipid Assay Protocol. Rhamnolipid was quantified following a reported protocol (Koch et al., 1991) with modifications. Assay cultures were prepared and grown in an identical manner to the pyocyanin assay above. Aliquots of the final culture supernatant (1 mL) were transferred to 1 dram glass vials and extracted twice with 1 mL diethyl ether. The pooled organic fractions were evaporated to dryness, and the resulting residue reconstituted in 200 μL de-ionized water. […] After briefly cooling to room temperature, 200 μL of the resulting yellow to yellow-orange solution was transferred to a clear 96-well microtiter plate, and the absorbance at 421 nm measured. Media background absorbance (measured from a “no bacteria” control) was subtracted, the resulting values growth normalized by dividing by the final OD600, and the data plotted relative to a DMSO-treated positive control. […] The amount of elastase B in P. aeruginosa culture supernatants was measured following a reported protocol (Geske et al., 2007) with modifications. […] To quantify elastase B activity, the undigested elastin was pelleted by centrifugation of the assay plate at 1,500 g for 10 min, after which 100 μL of the supernatant was transferred to a new, clear 96-well plate, and the absorbance at 490 nm measured. Media background absorbance (measured from a “no bacteria” control) was subtracted, the resulting values growth normalized by dividing by the final OD600, and the data plotted relative to a DMSO-treated positive control.

P. aeruginosa (PAO1) [4] = experiment: Elastase B assay; format: cell-based, Pseudomonas aeruginosa; conditions: 17 h
Procedure: as §1

T1 sequence (P54292 whole entry): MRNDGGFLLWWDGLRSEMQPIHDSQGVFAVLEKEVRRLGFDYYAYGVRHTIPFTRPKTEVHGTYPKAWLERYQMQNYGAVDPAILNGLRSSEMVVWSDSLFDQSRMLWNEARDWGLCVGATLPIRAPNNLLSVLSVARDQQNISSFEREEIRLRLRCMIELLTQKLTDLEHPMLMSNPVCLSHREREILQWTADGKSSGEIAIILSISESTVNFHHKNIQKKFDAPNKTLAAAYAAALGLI

CCCC(=O)N[C@H]1CCOC1=O [BHL, N-butyryl L-homoserine lactone, reference compound]
EC50 (RhlR): ~8 µM | growth in MOPS Glutamate (P. aeruginosa (PAO1) [1]; complete MOPS Glutamate, 100 μM): also produced the growth delay

CCCCCCCCCC(=O)CC(=O)Nc1ccccc1 [compound 1]
pyocyanin production, single compound screens (P. aeruginosa (PAO1) [2]): strong pyocyanin inhibition, unless phosphate concentrations were low | pyocyanin production over time, low phosphate medium (P. aeruginosa (PAO1) [2]; MOPS Glutamate with phosphate diluted 10-fold, 100 microM compound 1): does not attenuate pyocyanin production; also recorded: little to no effect | pyocyanin production over time, complete medium (P. aeruginosa (PAO1) [2]; complete MOPS Glutamate, 100 microM compound 1): eliminated pyocyanin synthesis | rhamnolipid production, single compound screens (P. aeruginosa (PAO1) [3]): little to no effect | elastase B production, single compound screens (P. aeruginosa (PAO1) [4]; MOPS Glutamate and Glucose media, complete or iron/phosphate depleted, 100 μM (compounds 1, 2, 3), relative to DMSO): little to no effect | effect on cell growth, compound 1 (P. aeruginosa (PAO1) [1]; MOPS Glutamate, 100 microM compound 1): no effect on cell growth

O=C(CSc1nc2cc([N+](=O)[O-])ccc2[nH]1)Nc1ccc(Oc2ccccc2)cc1 [compound 4, 2-[(6-nitro-1H-benzimidazol-2-yl)-sulfanyl]-N-(4-phenoxyphenyl)acetamide]
pyocyanin production, single compound screens (P. aeruginosa (PAO1) [2]): eliminated pyocyanin synthesis under all conditions tested, even low iron and phosphate | rhamnolipid production, single compound screens (P. aeruginosa (PAO1) [3]): failed to inhibit rhamnolipid production; also recorded: cannot inhibit rhamnolipid | elastase B production in MOPS Glutamate, single compound screen (P. aeruginosa (PAO1) [4]; MOPS Glutamate, 25 μM compound 4): strong attenuation of elastase B production

Reference: US10322112B2, “Compound combinations for attenuation of bacterial virulence” (priority 2016, dated 2019)
